Reference: patent US20200232961A1, “CHARACTERIZATION AND APPLICATION OF POLYMERS FOR IN VIVO RELEVANT DRUG ABSORPTION CHARACTERIZATION IN VITRO” (priority 2017, published 2020)
In brackets after ≈: the same amount, converted by molar mass. Counter-ions that a name gives are not always drawn. Like-named read-outs stand apart in the source and are kept apart here.

Assays:
[1] = Partition coefficient measurements in PDMS membranes; format: physicochemical; conditions: intrinsic non-ionized partition coefficient, N = 5
Description: For each drug, five membranes were prepared. Each membrane was prepared with 10 parts base to 1 part curing agent and cured at 20° C. for at least 72 hours. Once cured, the membranes were sectioned using a template and razor blade. The dimensions of the perimeter and thickness were measured using a caliper to determine the volume of membrane. After determining membrane density, subsequent volume measurements were made using the density relationship. Stock solution was distributed to 5 sample vials with 1 membrane-free vial to serve as a control. The time zero point was measured from the blank vial and time points and 1 mL samples were taken at 12 and 24 hours. The collected samples were assayed in duplicate by HPLC. Bulk transport properties of PDMS were measured to evaluate PDMS fitness for the mimicking human oral absorption. The partition coefficient was calculated according to Equation 4. K=Partition coefficient Cmem*=Equilibrium concentration of drug in membrane Caq*=Equilibrium concentration of drug in the aqueous media

[2] = Rotating membrane diffusion cell experiments (permeation through PDMS membrane); conditions: for LAG TIME (PRED.): predicted from Crank's method (Equation 16); for LAG TIME (EXP.): time to steady state transport across the membrane, linear regression of concentration versus time
[3] = not told
[4] = format: physicochemical
Description: This experiment was conducted in a manner similar to the experiment described in “Partition Coefficient Measurements”, above. […] Four different mass % of curing agents (4.9%, 9.1%, 16%, and 25%) were examined at two different pH conditions (2.00 HCl 13 mM & 6.50 phosphate 50 mM). The Log DPDMS was measured as a function of pH at pH 2.00, 5.00, 6.45, and 12.00 using 13 mM HCl, 50 mM acetate, 50 mM phosphate, and 39 mM NaOH buffers, respectively, at RT (FIG. 5C).

[5] = physchem; conditions: pH 2, aqueous buffer, thermodynamic from solid
Description: Five 1.5 mL centrifuge tubes were labeled and prepared with 1 mL of the appropriate non-ionizing buffer (see Table 5). Solid drug in powder form was added to each individual vial and then vortexed. The addition of drug and vortex mixing was repeated until there was visible undissolved drug powder present. The centrifuge tubes were then put into a hot box where they remained at an aqueous temperature of 37° C. (set point 43° C.). The internal temperature was determined by measuring the temperature of a “blank” tube in the rack. Once the internal temperature reached 37° C., the tubes were held at 37° C. for 48 hours. The tubes were removed from the hot box and centrifuged at 17,000G for 3 hours. The tubes cooled below 37° C. during the centrifugation so the tubes were re-inserted into the hot box and allowed to reach 37° C. over the course of 1 hour. Supernatant was then extracted directly from the tube in the hot box without disturbing the pellet. The supernatant was appropriately diluted for HPLC analysis.
In each permeation experiment, the donor-phase-containing drug was at a non-ionizing pH if the drug was ionizable and the receiver phase was at a completely ionizing (>99%) pH. […] Progesterone solubility was determined twice, the second time as an analytical check.

[6] = Equilibrium partition coefficient of ibuprofen into VeroClear resin spheres; format: physicochemical; conditions: pH 2 in VeroClear, 10 mm diameter spheres
[7] = Mass increase of PDMS membranes after equilibrium partitioning with ibuprofen; format: physicochemical
Description: Ibuprofen was chosen as a model drug because of its high lipophilicity and the ability to measure the difference in mass of drug in the membrane before and after the partitioning experiment. There was no statistical difference in the positronium lifetimes, but there was a 1.76 mg±0.12 mg (n=7) mass increase in 25% by mass curing agent PDMS membranes, and a 2.90 mg±0.38 mg (n=6) mass increase in […] by mass curing agent PDMS membranes.

[8] = UTLAM diffusion cell dissolution/absorption experiment; format: in vitro ADME; conditions: 57 micron PDMS UTLAM, donor 50 mM phosphate pH 6.5, receiver pH 8.0, 37° C., 50 rpm, 162 mg dose
Description: According to the SEM freeze-fracture-determined thickness based on the terminal rotational speed and mass fraction of PDMS, the membranes tested in the following experiments were 57 microns thick. 130 mL of 50 mM phosphate buffer pH 6.5 was degas sed and used as the donor phase, while 100 mL of 50 mM phosphate buffer pH 8.0 was degas sed and used as the receiver phase. The rationale behind this is that PDMS has poor ability to transport ions (a […] pH-partition relationship) and the more ionized the drug is, the less driving force the drug will provide for reverse transport out of the receiver phase. […] Ultimately, this leads to a […] transport rate of ibuprofen returning to the donor compartment. […] It is understood that the measured absorption rate is […] due the additional partitioning kinetics introduced by the resin that forms the UTLAM device. […] Physiologically, it is understood that the bicarbonate buffer bulk pH and buffer capacity are lower in the duodenum and jejunum than that of the USP 2 dissolution test. […]
The PDMS UTLAM is floated in deionized water and in about two hours the PVA is dissolved enough to tease the PDMS UTLAM to the surface of the water. […] Equivalent stirring rates could be calculated for the USP 2 paddle using CFD measurements made in COMSOL. […]

[9] = literature values (refs 6, 41); cited from earlier work
[10] = average PDMS KD divided by 10^LogK for PDMS

| Structure (SMILES) | PDMS LOGK [1] | LAG TIME (PRED.) [2] [min] | LAG TIME (EXP.) [2] [min] | AVG. PDMS (K*D) [3] | LAG TIME (PRED.) [3] [min] | PARTITION INDEPENDENT DIFF. COEFF (K*D)/10^LOGK^PDMS [2, 10] | further results |
| --- | --- | --- | --- | --- | --- | --- | --- |
| O=C(O)c1ccccc1 [BENZOIC ACID, Benzoic Acid] | 0.10 | 238 | 25 |  |  |  |  |
| Cn1c(=O)c2c(ncn2C)n(C)c1=O [CAFFEINE, Caffeine] |  |  |  | 6.02 × 10^−10 CM^2 S^−1 | 571 |  | PARTITION I[…]. COEFF (K*D)/10^LOGK^PDMS [2, 10]: 1.70 × 10^−8 CM^2 S^−1 |
| CC(C)Cc1ccc(C(C)C(=O)O)cc1 (stereo not drawn) [IBUPROFEN, Ibuprofen] | 1.79 |  |  | 1.83 × 10^−5 CM^2 S^−1 | 158 | 2.99 × 10^−7 CM^2 S^−1 | MEASURED PDMS LOGPU ± SE [4]: 1.81; PI EQ. 6 ([4]; calculated to fit equation 6 using data at pH 11.81 and fu~0): 0.008; MEASURED PDMS PU ± SE ([4]; intrinsic non-ionized partition coefficient, N = 15): 65; K (partition coefficient) in PDMS ([4]; pH 2): 65; MEASURED PDMS LOGPI ± SE ([4]; pH 11.81): −0.286; solubility thermodynamic at 48 h ([5]; NON-IONIZED SOLUBILITY): 60 mg/mL (≈ 291 mM); K (equilibrium partition coefficient) in VeroClear [6]: 86; mass increase of PDMS membrane after equilibrium partitioning ([7]; 3.2% by mass curing agent PDMS membranes, n=6): 2.90 mg; mass increase of PDMS membrane after equilibrium partitioning ([7]; 25% by mass curing agent PDMS membranes, n=7): 1.76 mg; absorption rate (net flux) [8]: within the same order of magnitude of ibuprofen absorption in human beings |
| CC(C(=O)O)c1cccc(C(=O)c2ccccc2)c1 (stereo not drawn) [KETOPROFEN, Ketoprofen] | 0.56 | 482 | 232 |  |  | 2.58 × 10^−8 CM^2 S^−1 | pKa [9]: 3.89; AVG. PDMS (K*D) ([2]; non-ionized drug, donor/receiver buffer I/III as printed, 37° C., 150 rpm): 9.46 × 10^−8 CM^2 S^−1 |
| COCCc1ccc(OCC(O)CNC(C)C)cc1 (stereo not drawn) [METOPROLOL TARTRATE, Metoprolol Tartrate] | 0.68 |  |  |  |  |  |  |
| CC(=O)[C@H]1CC[C@H]2[C@@H]3CCC4=CC(=O)CC[C@]4(C)[C@H]3CC[C@]12C [PROGESTERONE, Progesterone] | 2.03 |  |  | 1.14 × 10^−5 CM^2 S^−1 | 158 | 1.07 × 10^−7 CM^2 S^−1 | solubility thermodynamic at 48 h ([5]; 13 mM hydrochloric acid buffer, NON-IONIZED SOLUBILITY (ANALY. COMP.), second determination as analytical check with different dilution, pH 2.00 13 mM hydrochloric acid buffer at 37° C.): 20.9 mg/mL (≈ 66.5 mM); solubility thermodynamic at 48 h ([5]; 13 mM hydrochloric acid buffer, NON-IONIZED SOLUBILITY, I = pH 2.00 13 mM hydrochloric acid buffer at 37° C.): 21.3 mg/mL (≈ 67.7 mM) |
